{"source": "patent US8008354B2", "about": "“Death receptor sensitizing compounds and methods of use therefor” (Burnham Institute for Medical Research, priority 2006, dated 2011)", "key": {"[1]": {"system": "PC-3, DU-145, LNCaP, T47D, MB-MDA-468 and OVCAR-3 cells", "assay": "MTS viability of additional malignant cell lines under adherent conditions with or without CH-11", "assay_type": "cell-based", "protocol": "FIG. 14. Tumor cell sensitivity to anoikis correlates with sensitivity to Fas-mediated apoptosis. PC-3, DU-145, and LNCaP prostate, T47D and MB-MDA-468 breast, and OVCAR-3 ovarian cancer cells were cultured under adherent conditions with increasing concentrations of 5809354, in the presence or absence of Fas-activating antibody (CH-11, 100 ng/mL). Thirty hours after incubation, cell viability was determined using the MTS assay. Cell lines were also cultured under suspension conditions in the presence or absence of 5809354. Thirty hours after incubation, equal volumes of suspension-cultured cells were replated in a colony formation assay. Data represents the mean±SEM percent of viable cells or colonies compared to untreated controls.\nCell viability apoptosis, colony formation, and caspase activation assays. Cell viability was assessed using the MTS reduction assay (Promega, Madison, Wis., USA) according to the manufacturer's protocols and as described in Schimmer et al. (2006). Apoptosis was measured by flow cytometry to detect cell surface annexin V expression and propidium iodide (PI) uptake (Biovision, Mountain View, Calif., USA) as described in Carter et al. (2005). […] Clonogenic growth after suspension culture was measured using colony formation assays. […] Colonies were fixed, stained with methylene blue, and counted. […]"}, "[2]": {"system": "E1A-transformed wild-type (WT) and caspase 8-/- MEFs", "assay": "MTS viability of wild-type and caspase 8-/- MEFs in suspension conditions", "assay_type": "cell-based", "conditions": "ten hours", "protocol": "FIG. 15. 5809354 sensitizes cells to anoikis through a caspase 8 dependent mechanism. (A) PPC-1 cells (5×10^4) were cultured under suspension conditions overnight and then treated with 5809354 in the presence or absence of the pan-caspase inhibitor z-VAD-fink (100 μM). Thirty hours after incubation, anoikis was determined by flow cytometry to detect cell surface annexin V expression and PI uptake. Data represents the mean±SEM percent of viable cells or colonies compared to untreated controls. (B) PPC-1 cells (5×10^4) were cultured in suspension conditions overnight and then treated with 5809354 (60 μM). At increasing times after treatment, caspase activation was detected with FITC-labeled peptides that bind preferentially and irreversibly to caspase 3/7, 8, or 9. Caspase activation was monitored by flow cytometry to quantify the percentage of fluorescently labeled cells. […] At increasing times after incubation, total cellular protein was isolated and analyzed by SDS-PAGE immunoblotting using anti-caspase 8 and anti-actin antibodies. * indicates cleaved caspase 8. […] Thirty hours after incubation, apoptosis was measured by cell surface annexin V expression and PI uptake. […] Ten hours after incubation, cell viability was measured using the MTS assay. […] EGFP expression and nuclear morphology were analyzed by fluorescence microscopy. […]"}}, "data": [{"substance": "4-(4-chloro-2-methylphenoxy)-N-hydroxybutanamide [compound 5809354]", "values": [{"measurement": "sensitization to CH-11", "setting": "[1]; LNCaP or MB-MDA-468 cells", "value": "did not sensitize"}, {"measurement": "sensitization to CH-11-induced apoptosis", "setting": "[1]; PC-3, DU-145, T47D and OVCAR-3 cell lines, CH-11 100 ng/mL", "value": "sensitized"}, {"measurement": "anoikis of caspase 8-deficient MEFs compared to wild-type", "setting": "[2]", "value": "resistant"}]}]}
